{"source": "patent US9746463B2", "about": "(THE TRUSTEES OF COLUMBIA UNIVERSITY IN THE CITY OF NEW YORK, priority 2006, dated 2017)", "key": {"[1]": {"test_system": "Adiponectin expression in WT adipocytes", "test": "Adiponectin expression in adipocytes treated with osteocalcin (real time PCR)", "type": "cell-based, mouse", "description": "(§1) FIG. 7A-O. Esp−/− Mice Are a Model of Increased Osteocalcin Bioactivity. (FIGS. 7A-G) Comparison between 6-week-old WT, Esp−/, Ocn+/−, and Esp−/−; Ocn+/− mice. (FIG. 7A) Blood glucose levels. (FIG. 7B) Serum insulin levels. (FIG. 7C) Serum adiponectin levels. (FIG. 7D) GTT. (FIG. 7E) ITT. (FIG. 7F) GSIS test. (FIG. 7G) Quantification of the number of Ki67-immunoreactive cells in pancreatic islets. […] (FIG. 7K) Expression of Adiponectin in WT adipocytes cultured in presence of vehicle or of 1 ng/ml of commercially available carboxylated osteocalcin (Immunotopics) or bacterially produced uncarboxylated osteocalcin. (FIG. 7L) Expression of Insulin and Cyclin D1 in WT islets cultured in presence of 0.3 ng/ml of bacterially produced uncarboxylated osteocalcin or vehicle. (FIG. 7M) Metabolic parameters and total serum osteocalcin levels in control and obese patients. (FIG. 7N-O) Quantification of carboxylated osteocalcin (HA-bound osteocalcin) in control and obese patients. In (FIGS. 7A)-(C) and (FIGS. G)-(L): *p<0.05 versus WT (Student's t test); in (FIG. D)-(F), °p<0.05 versus WT and *p % 0.001 versus WT (ANOVA followed by post hoc analysis).\nFIG. 15. […] Wt adipocytes were treated for 4 hours with recombinant full-length osteocalcin (1-46) or a truncated form (1-36) or vehicle. Adiponectin expression was then quantified by real time PCR.\nPrimary adipocytes were isolated from epididymal fat pads by collagenase digestion. Briefly, minced adipose tissue was digested by 1 mg/ml collagenase P in KRP Buffer (20 mM HEPES, 120 mM NaCl, 6 mM KCl, 1.2 mM MgSO4, 1 mM CaCl2, 0.6 mM Na2HPO4, 0.4 mM NaH2PO4, 2.5 mM D-glucose, 2% BSA, pH 7.4) for 1 h at 37° C. The isolated cells were washed twice with KRP Buffer before being cultured in αMEM/1% FBS at 37° C. in 5% CO2.\nGene expression analyses. All gene expression analyses were performed using real time PCR. DNAse I-treated total RNA was converted to cDNA with the SuperScript III kit (Invitrogen). Real-time PCR were performed using the Taq SYBR Green Supermix with ROX (Biorad) on an MX3000 instrument (Stratagene); beta-actin amplification was used as an internal reference for each sample. All primers were from SuperArray.\nA fragment of uncarboxylated osteocalcin is biologically active. Experiments were performed to test whether truncated osteocalcin was as effective as full-length uncarboxylated osteocalcin in stimulating adiponectin secretion from mouse adipocytes in vitro. Wild type adipocytes were treated for 4 hours with recombinant full-length osteocalcin (1-46) or a truncated form (1-36) (having a deletion of the first ten amino acids from the C-terminal end) or vehicle. Adiponectin expression was then quantified by real time PCR. […]"}, "[2]": {"test_system": "wild type osteoblasts", "test": "Isoproterenol on wild type osteoblasts: mRNA levels by quantitative PCR", "type": "cell-based", "source_text": "The sympathetic nervous system positively regulates OST-PTP expression. It was discovered that sympathetic nervous system (SNS) activity positively regulates Esp expression in osteoblasts. […] Thus, decreasing sympathetic activity should lead to a decrease in Esp expression and thereby to an increase in the undercarboxylated, active form of osteocalcin."}, "[3]": {"test_system": "Adiponectin expression in WT adipocytes", "test": "Co-culture of adipocytes with warfarin-treated osteoblasts: adiponectin expression", "type": "cell-based, mouse", "conditions": "warfarin-treated vs vehicle-treated osteoblasts (FIG. 7J)", "description": "as §1\nCo-culture of osteoblasts and adipocytes to study regulation of adiponectin expression/secretion by osteocalcin. A co-culture assay was developed between osteoblasts and adipocytes to analyze modifications in adiponectin expression. […]"}, "[4]": {"test_system": "gamma-carboxylation of osteocalcin in osteoblasts", "test": "Osteocalcin/hydroxyapatite (HA) binding assay of medium from warfarin-treated osteoblasts", "type": "cell-based, mouse", "description": "as §1\nCell culture experiments. […]\nOsteocalcin/hydroxyapatite (HA) binding assay. […] Osteocalcin present in eluates and initial samples was measured by IRMA. […]"}, "[5]": {"conditions": "hydroxyapatite competition studies; cited from earlier work"}}, "note": "Bridge positions count the residues as written; N and C are the ends. Square brackets hold non-standard residues; d marks the D form. Primed or numbered codes have the meaning given here. Ends that are not written are not given here. Gla′ = carboxylated glutamic acid", "data": [{"compound": "1-36 fragment of uncarboxylated osteocalcin: Recombinant truncated mouse osteocalcin (1-36), ten amino acids deleted from the C-terminal end (YLGASVPSPDPLEPTREQCELNPACDELSDQYGLKT; not fully specified; ends and bridges not checked; UniProt P86546 50-85, looked up, fragment)", "values": [{"measurement": "increase of Adiponectin expression", "setting": "[1]; wild type adipocytes treated for 4 hours, real time PCR, vs vehicle", "value": "~1.8", "unit": "fold"}, {"measurement": "potency in inducing adiponectin expression compared with native osteocalcin", "setting": "[1]; wt adipocytes, 4 hours, in vitro", "value": "as potent as native osteocalcin"}]}, {"compound": "CC(C)NCC(O)c1ccc(O)c(O)c1", "note": "(stereo not drawn) [isoproterenol]", "values": [{"measurement": "expression of gamma-carboxylase (ggcx)", "setting": "[2]", "value": "did not increase expression"}, {"measurement": "expression of osteocalcin", "setting": "[2]", "value": "did not increase expression"}, {"measurement": "expression of vkor", "setting": "[2]", "value": "did not increase expression"}, {"measurement": "increase of Esp expression", "setting": "[2]; at 8 hours", "value": "remains steady"}, {"measurement": "increase of Esp expression", "setting": "[2]; by 4 hours", "value": "about 80%"}]}, {"compound": "CC(=O)CC(c1ccccc1)c1c(O)c2ccccc2oc1=O", "note": "(stereo not drawn) [warfarin]", "values": [{"measurement": "induction of adiponectin expression in co-cultured adipocytes", "setting": "[3]", "value": "significantly higher extent"}, {"measurement": "percentage of osteocalcin bound to HA", "setting": "[4]; conditioned medium of warfarin-treated osteoblasts vs vehicle (FIG. 7I)", "value": "marked decrease"}, {"measurement": "levels of undercarboxylated osteocalcin produced by osteoblasts", "setting": "[4]; warfarin-treated vs vehicle-treated osteoblasts (FIG. 7I)", "value": "elevated levels"}]}, {"compound": "Decarboxylated osteocalcin: thermally decarboxylated osteocalcin of the literature (YLYQWLGAPVPYPDPLEPRREVCELNPDCDELADHIGFQEAYRRFYGPV; not fully specified; ends and bridges not checked; UniProt P02818 52-100, looked up)", "values": [{"measurement": "competition with ^125I-labeled osteocalcin bound to hydroxyapatite", "setting": "[5]", "value": "fail to compete"}]}, {"compound": "carboxylated osteocalcin: commercially available carboxylated osteocalcin (Immunotopics) (YLYQWLGAPVPYPDPL[Gla′]PRR[Gla′]VC[Gla′]LNPDCDELADHIGFQEAYRRFYGPV; disulfide 23-29; ends not checked; also: carboxylated (Gla), sites not given here; UniProt P02818 52-100, looked up) [reference compound]", "values": [{"measurement": "induction of adiponectin expression", "setting": "[1]; WT adipocytes, 1 ng/ml (FIG. 7K)", "value": "failed to induce adiponectin expression"}]}]}
